ChEMBL document CHEMBL4689842, “EUbOPEN Chemogenomics Library wave 1” (2021)

Experiments:
Assay type in all cases: toxicity, cell-based
[1] = system: HEK-293T; assay: Incucyte cell viability with HEK293T; conditions: human, 10 µM, compound concentration 10 uM
[2] = system: Fibroblast; assay: Incucyte cell viability with human fibroblast; conditions: 10 µM, compound concentration 10 uM
[3] = system: U2OS; assay: Incucyte cell viability with U2OS; conditions: human, 10 µM, compound concentration 10 uM
[4] = 0 h, replicate number 1, timepoint 0 hours
[5] = 6 h, replicate number 1, timepoint 6 hours
[6] = 12 h, replicate number 1, timepoint 12 hours
[7] = 18 h, replicate number 1, timepoint 18 hours
[8] = 24 h, replicate number 1, timepoint 24 hours
[9] = 24 h, replicate number 2, timepoint 24 hours
[10] = 6 h, replicate number 2, timepoint 6 hours
[11] = 12 h, replicate number 2, timepoint 12 hours
[12] = 18 h, replicate number 2, timepoint 18 hours
Also: filed as whole numbers so only -1 and 0 and 1 occur.

Row | Structure (SMILES) | Growth Rate [1, 4] | Growth Rate [1, 5] | Growth Rate [1, 6] | Growth Rate [1, 7] | Growth Rate [1, 8] | Growth Rate [1, 9] | Growth Rate [3, 5] | Growth Rate [3, 6] | Growth Rate [3, 7] | Growth Rate [3, 8] | also measured
1 | O=C(NNS(=O)(=O)c1ccccc1)c1cc(-c2ccnnc2)ccc1F [WM-2474] | 0 | 1 | 1 | 1 | 0 | 1 | 0 | 0 | 0 | 1 | Growth Rate [2, 4]: 0; Growth Rate [2, 10]: 0; Growth Rate [2, 6]: 1; Growth Rate [2, 7]: 1; Growth Rate [2, 8]: 1; Growth Rate [3, 4]: 1; Growth Rate ([3]; 0 h, replicate number 2, timepoint 0 hours): 0; Growth Rate [3, 9]: 0
2 | CC(C)(Cc1ccccc1)NCC(O)c1ccc(O)c(NS(C)(=O)=O)c1.Cl (stereo not given) [ZINTEROL HYDROCHLORIDE] | 0 | 1 | 1 | 1 | 1 | 0 | 0 | 1 | 0 | 1 | Growth Rate [1, 10]: 0; Growth Rate [1, 11]: 0; Growth Rate [1, 12]: 0; Growth Rate [2, 11]: 1; Growth Rate [2, 12]: 1; Growth Rate [2, 9]: 1; Growth Rate [3, 12]: 1
